Consider 59 molecules from the METLIN SMRT retention time set (Domingo-Almenara et al. 2019).

The nature of the data set: gradient 5% acetonitrile 3 min, to 50% in 2 min, to 85% in 15 min, held 3 min, 100 µL/min. The note with it: column: Zorbax Extend-C18 2.1 x 50 mm; eluents: water / acetonitrile, 0.1% formic acid. The method in brief:
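Data were gathered over 3 months by HPLC coupled to a quadrupole time-of-flight mass spectrometer, operated in positive and negative ionization mode. Mixtures of ~100 pure standards ran on a Zorbax Extend-C18 column (2.1 × 50 mm, 1.8 μm) at 100 μL/min, with water and acetonitrile each containing 0.1% formic acid and dead and dwell volumes of 40 μL and 900 μL. Retention time was read from adduct peaks picked by computer and checked manually.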
For the molecule `O=C(NCc1ccc(N2CCOCC2)cc1)C1CCCN(c2cnc3nccnc3c2)C1` (centres undefined), the RP-LC retention time is 728 s.

Molecule `CC(=O)Nc1ccc(C(=O)NCc2ccc(Br)cc2)c(N2CCOCC2)c1` displayed an RP-LC retention time of 785 s.

On to `CN1C(=O)c2ccccc2C(C(=O)Nc2ccc(F)cc2F)C1c1cccs1` (centres undefined), for which the RP-LC retention time worked out at 884 s. Molecule `O=C(N1CCCC(c2nnnn2-c2ccccc2)C1)C1(c2ccccc2)CC1` (centres undefined) registered an RP-LC retention time of 839 s. The figure for `CC1(CNS(=O)(=O)c2ccc(F)cc2F)CCOCC1` is 779 s. The figure for `CC(C)C(=O)Nc1ccc2nc(N3CCN(Cc4ccccc4F)CC3)cc(C(=O)O)c2c1` is 585 s. In turn, `CCOc1ccc(CC(=O)NC2(c3nc(CC)no3)CCCCC2)cc1` yielded an RP-LC retention time of 940 s. Then `CCCOc1nccnc1NC1CCN(C(=O)c2ccsc2)CC1`, with 713 s; and `COc1ccc2[nH]cc(CCNC(=O)C(C)C3CCN(S(=O)(=O)c4cccs4)CC3)c2c1` (centres undefined), with 827 s; and `CCCCN1C(=O)C(C)(C(=O)Nc2ccc(F)c(F)c2)Oc2cccnc21` (centres undefined), with 1070 s. The figure for `Cc1ccc(NC(=O)C2CCCN(c3nc4ccsc4c(=O)n3-c3ccc(C)cc3)C2)cc1` (centres undefined) is 996 s; for `CC(C)CN1Cc2ccccc2-n2ccnc2C12CCN(C(=O)c1ccn[nH]1)CC2` it is 615 s. In turn, `COC(=O)COc1cc(-c2ccc(F)cc2)nc2ccc(NC(=O)Cc3ccccc3)cc12` had an RP-LC retention time of 809 s. The figure for `CCN(C(=O)C1CCCN(c2ncnc3c2nc2n3CCCCC2)C1)c1ccccc1C` (centres undefined) is 890 s; for `COc1ccccc1NC(=O)[C@H]1[C@H]2C=C[C@]3(CN(Cc4cccnc4)C(=O)[C@@H]13)O2` it is 597 s. The figure for `COCC(=O)N1CCCc2ccc(NC(=O)CSc3ccc(F)cc3)cc21` is 732 s; for `Cc1nnc([C@@H]2CC(F)(F)CN2C(=O)COc2ccc(F)cc2)o1` it is 736 s. Then `CC1CN2C=NC(N3CCN(C(=O)Nc4ccccc4C(F)(F)F)CC3)=CC2=N1` (centres undefined), with 616 s. As to `Cc1cccc(N2CCN(Cc3nc4nc(C)cc(N5CCCC5)n4n3)CC2)c1`, the RP-LC retention time stood at 632 s. In turn, `COCCNCc1ccc(-c2cccc(Cl)c2)o1` gave an RP-LC retention time of 647 s. Then `CCn1ccc2cc(S(=O)(=O)N3CCCC(C(=O)NCCCN4CCOCC4)C3)ccc21` (centres undefined), with 648 s. Then `CCn1cc(-c2nc(C(=O)N3CCN(c4ccccc4F)CC3)cs2)c2cccnc21`, with 1040 s; and `CCCc1noc(-c2ccc(-n3ncc(C(=O)N4CCCC(C)C4)c3C)nc2)n1` (centres undefined), with 1130 s; and `CCCn1ccc2sc(C)c(C(=O)NCc3ccc(C)o3)c2c1=O`, with 867 s.

The molecule `Cc1cc(C)n(-c2ccc(C(=O)NCc3nc4ccccc4[nH]3)nn2)n1` displayed an RP-LC retention time of 564 s. Then `COc1cc(OC)c(NC(=O)c2cc3c(=O)oc4ccccc4c3n2C)cc1Cl`, with 1030 s; and `Cc1ccc(NS(=O)(=O)c2cc(-c3[nH]ncc3C(=O)N3CCCC3)oc2C)c(F)c1`, with 738 s. The figure for `CCNC(=O)C1CCCN(c2nc3ncn(CC(=O)Nc4cc(C)ccc4C)c(=O)c3s2)C1` (centres undefined) is 673 s; for `CN(C)CC1CN(C(=O)c2c[nH]c3ccccc23)CC12CCOCC2` (centres undefined) it is 725 s; for `COc1cc(-c2noc(Cn3ncn4nc(-c5ccc(F)cc5)cc4c3=O)n2)cc(OC)c1OC` it is 1020 s. The figure for `C=CCN1C(=O)COc2ccc(-c3csc(NC(=O)CCCC)n3)cc21` is 953 s. Consider `O=C(NCCc1ccccc1)N1C[C@@H]2C[C@H]1C[C@@H]2NS(=O)(=O)c1ccccc1`, for which the RP-LC retention time was determined as 820 s. Take `CCOC(=O)c1noc2ncnc(Nc3ccc(CN4CCCCC4)cc3)c12`: the RP-LC retention time turned out to be 593 s. The figure for `Cc1cc(C(F)(F)F)nn1CC(=O)NCCn1c(C)cnc1C1CCC1` is 634 s; for `O=C(O)c1cccc(Nc2c(-c3ccc(Cl)cc3)nc3cnccn23)c1` it is 757 s; for `C=CCSC(CC)(CC)C(N)=O` it is 805 s.

Regarding `Cc1ccc(S(=O)(=O)N2CCC(c3nc(-c4cccc(-c5ccn[nH]5)c4)no3)CC2)cc1`, the RP-LC retention time was found to be 971 s. The figure for `Cc1ccc(NC(=O)Nc2ccc(NC(=O)N3CCCC(C(=O)NCC4CC4)C3)cc2)cc1` (centres undefined) is 779 s; for `Cc1ccc(NC(=O)C2CCCN(c3cn[nH]c(=O)c3)C2)cc1C` (centres undefined) it is 742 s; for `O=C(NCCCN1CCCC1=O)c1csc(N2CCN(c3ccc(Cl)cc3)CC2)n1` it is 881 s. The figure for `CC(C)Cn1c(=O)c2cc(C(=O)NCCCn3cccn3)nn2c2ccccc21` is 831 s; for `CC1(C)CS(=O)(=O)N(c2cccc(C(=O)NCCc3c[nH]c4ccccc34)c2)C1=O` it is 825 s. The figure for `CCn1cc(-c2nc(C(=O)Nc3ccccc3OC)cs2)c2cccnc21` is 1180 s; for `CN1C(=O)COc2cc(-c3noc(C(=O)N4CCCCC4)n3)ccc21` it is 841 s. `O=C(CN1C(=O)CC(c2cccs2)=Nc2ccccc21)Nc1ccc(F)cc1` displayed an RP-LC retention time of 928 s. The figure for `COc1ccc(C(C)NC(=O)c2nnc(-c3ccc(S(=O)(=O)N(C)C)cc3)o2)cc1` (centres undefined) is 893 s; for `CC1(C)CC(=O)c2c(nc(N3CCN(c4ccccn4)CC3)nc2Nc2ccccc2)C1` it is 841 s; for `CCN1C(=O)C(C)(C(=O)NCc2ccccc2Cl)Oc2cccnc21` (centres undefined) it is 890 s. Then `CCc1nn2c(CNS(=O)(=O)Cc3ccc(Cl)cc3)c(-c3ccccc3)nc2s1`, with 1020 s. The figure for `Clc1cc(Br)ccc1-c1ccc(CNCc2cccnc2)o1` is 664 s; for `Cc1ccc(NC(=O)N2CC(c3nc(CCOCC4CC4)no3)C2)cc1C` it is 863 s; for `Cc1c(Cl)cccc1NC(=O)Cn1nc(N(C)C)c2ccccc2c1=O` it is 906 s. For `CCN1CCN(CCNC(=O)Cn2c(=O)n(-c3ccc(F)cc3)c3ncccc32)CC1`, the RP-LC retention time amounted to 583 s.

In the case of `COc1ccc(-c2csc(NC(=O)Cn3c(=O)oc4cc(Br)ccc43)n2)cc1`, the RP-LC retention time stood at 1070 s. Then `CN1C(=O)C2CCCCN2c2ccc(C(=O)NCCCN3CCN(C4CCCCC4)CC3)cc21` (centres undefined), with 594 s; and `O=C(O)C(c1ccccc1)n1cnnn1` (centres undefined), with 585 s; and `Cc1cc(Cl)ccc1NC(=O)Cn1c(C)nc2onc(C)c2c1=O`, with 818 s.

`NC(=O)C(c1ccccc1)(c1ccccc1)[C@@H]1CCN(CCc2ccc3c(c2)CCO3)C1` gave an RP-LC retention time of 740 s. In turn, `COc1ccc2c(=O)oc3c(OC)cc(CCN(C)C)c4c(=O)oc1c2c34` returned an RP-LC retention time of 689 s.
